Earlier results on four compounds are cited in patent publication US10143639B2, “Use of adelmidrol and other topical or oral cannabinomimetic or aliamide mast cell inhibitors to treat dermatoheliosis, seborrheic keratoses, and androgenetic alopecia” (priority 2017, dated 2018).

One data set relates to hair growth in mice. Conditions: applied to the skin of mice.
The next data set relates to AGA patients. The conditions noted are these: share of treated AGA patients improving.
Another data set has as its system AGA scalp. The conditions noted are these: topical application, especially in subjects already taking finasteride.

Regarding `CCCCCCCCCCCCCCCC(=O)NCCO` [PEA, palmitoylethanolamide], the “pro-inflammatory effects of NGF” value in the data set with NGF was “turned off the pro-inflammatory effects of NGF”.

Regarding `CCCCC[C@H](O)/C=C/[C@H]1C(=O)C[C@H](O)[C@@H]1C/C=C\CCCC(=O)O` [PGD2, Prostaglandin D2], the hair growth result with hair growth in mice was “stopped hair growth”.

`CC(C)(C)NC(=O)[C@H]1CC[C@H]2[C@@H]3CC[C@H]4NC(=O)C=C[C@]4(C)[C@H]3CC[C@]12C` [finasteride]: in the data set on AGA patients, the “clinical improvement in treated AGA patients” value was 50-60%.

In the case of `CCCCC/C=C\C/C=C\CCCCCCCC(=O)O` [linoleic acid], in the data set with AGA scalp, the hair growth result is “improved hair growth”.
